Laboratory results from patent US5082845A, “Therapeutic xanthine derivatives for the treatment of peptic ulcer disease” (Hoechst Japan Limited, priority 1988, dated 1992).

Key:
[1] = system: stress-induced gastric ulcer in rats; assay: Protective effect on gastric ulcer induced by restraint plus water-immersion stress in rats; assay type: in vivo, male Sprague-Dawley rats; settings: 10 mg/kg po; for Ulcer index: mean ± S.E.; for inhibition in vivo at 10 mg/kg: Rattus norvegicus, stress-induced ulcer
Description: 1.1 Protective Effect on Gastric Ulcer Induced by Restraint Plus Water-Immersion Stress in Rats
Male Sprague-Dawley rats weighing 250-300 g were used in groups of 5-34. The animals were given the compounds by the oral route after fasting overnight. Immediately, under light ether anesthesia they were placed in a restraint box and immersed in water at 20° C. for 6 or 7 hours. Then the animals were sacrificed, and their stomachs were isolated, inflated with 4 ml of 1% formalin for 10 minutes, opened along the greater curvature, and examined for the presence of gastric erosions. The longest axis of each erosion induced on the glandular section of the stomach was measured, and the sum of the lengths was defined as an ulcer index.

[2] = system: ethanol-induced gastric ulcer in rats; assay: Protective effect on ethanol-induced gastric ulcer in rats; assay type: in vivo, male Sprague-Dawley rats; settings: 10 mg/kg po; for Ulcer index: mean ± S.E.; for inhibition in vivo at 10 mg/kg: Rattus norvegicus
Description: 1.2 Protective Effect on Ethanol-Induced Gastric Ulcer in Rats
Male Sprague-Dawley rats weighing 250-300 g were used in groups of 5-24. After fasting overnight, the animals were given orally the compounds. Thirty minutes later they received absolute ethanol (1 ml/body) orally and were sacrificed after 60 minutes. The stomach was removed and examined for erosions. The ulcer index was obtained in the same way as under 1.1.

in vivo = settings: mouse, in vivo, mice
Description: (§1) LD50 values of the compounds of this invention were determined after intravenous injection or intraperitoneal administration to mice for acute toxicity test. The studies were carried out using male and female NMRI mice (n=3/group) having a body weight between 19-21 g.

mice = assay: in vivo; settings: acute
Description: as §1

peptic ulcer disease = settings: Ter. Arkh. 57, 52-55, 1985; cited from earlier work
[3] = series with control (distilled water) 26.2 ± 1.6 mm
[4] = series with control 26.2 ± 1.6 mm
[5] = series with control (distilled water) 111.6 ± 10.4 mm
[6] = series with control 111.6 ± 10.4 mm
[7] = series with control (distilled water) 19.7 ± 2.9 mm
[8] = series with control 19.7 ± 2.9 mm
[9] = series with control (10% EtOH) 118.8 ± 9.6 mm
[10] = ip, intraperitoneal administration, 7 days (footnote b)
[11] = series with control (distilled water) 164.7 ± 19.4 mm
[12] = series with control 164.7 ± 19.4 mm

## C=CCn1c(=O)c2c(ncn2CCCCC(O)CO)n(CC)c1=O (stereo not shown) [Compound 6, 1-Allyl-3-ethyl-7-(5,6-dihydroxyhexyl)-xanthine]
[1]; [3]
  Ulcer index: 7.0 ± 0.9 mm
[1]; [4]
  inhibition in vivo at 10 mg/kg: 73.2%
[2]; [5]
  Ulcer index: 10.7 ± 1.4 mm
[2]; [6]
  inhibition in vivo at 10 mg/kg: 90.4%
In vivo; intravenous, n=3/group, 7 days
  LD50 at 168 h: > 200 mg/kg

## C=CCn1cnc2c1c(=O)n(CCCCC(C)O)c(=O)n2C (stereo not shown) [Compound 21, 7-allyl-1-(5-hydroxyhexyl)-3-methylxanthine]
[1]; [3]
  Ulcer index: 13.4 ± 3.2 mm
[1]; [4]
  inhibition in vivo at 10 mg/kg: 48.9%
In vivo; intravenous, n=3/group, 7 days
  LD50 at 168 h: 100 to 200 mg/kg

## CCCn1c(=O)n(CCCCC(C)=O)c(=O)c2c1ncn2CCCCC(O)CO (stereo not shown) [Compound 9, 7-(5,6-Dihydroxyhexyl)-1-(5-oxohexyl)-3-n-propylxanthine]
[1]; [3]
  Ulcer index: 20.2 ± 5.8 mm
[1]; [4]
  inhibition in vivo at 10 mg/kg: 22.9%
In vivo; intravenous, n=3/group, 7 days
  LD50 at 168 h: > 200 mg/kg

## CC(=O)CCCCn1c(=O)c2c(ncn2CC(C)O)n(C)c1=O (stereo not shown) [Compound 20]
[1]; [7]
  Ulcer index: 6.9 ± 2.1 mm
[1]; [8]
  inhibition in vivo at 10 mg/kg: 65%
In vivo; intravenous, n=3/group, 7 days
  LD50 at 168 h: > 200 mg/kg

## CCn1c(=O)n(CC(C)=O)c(=O)c2c1ncn2CCCCC(O)CO (stereo not shown) [Compound 7, 3-Ethyl-7-(5,6-dihydroxyhexyl)-1-(2-oxopropyl)-xanthine]
[1]; [3]
  Ulcer index: 20.4 ± 4.1 mm
[1]; [4]
  inhibition in vivo at 10 mg/kg: 21.9%
In vivo; intravenous, n=3/group, 7 days
  LD50 at 168 h: > 200 mg/kg

## CCCCCCn1c(=O)c2c(ncn2CCCCC(C)O)n(C)c1=O (stereo not shown) [Compound 17]
[2]; [9]
  Ulcer index: 13.4 ± 5.2 mm
  inhibition in vivo at 10 mg/kg: 88.7%
In vivo; [10]
  LD50 at 168 h: 500 to 1000 mg/kg

## CCCn1c(=O)c2c(ncn2CCCCC(C)O)n(C)c1=O (stereo not shown) [Compound 15]
[1]; [7]
  Ulcer index: 2.2 ± 0.9 mm
[1]; [8]
  inhibition in vivo at 10 mg/kg: 88.9%
In vivo; intravenous, method of LitchfieldWilcoxon using 10 mice/dose (footnote a)
  LD50 at 168 h: 123 mg/kg

## CCCCn1c(=O)c2c(ncn2CCCCC(C)O)n(C)c1=O (stereo not shown) [Compound 16]
[1]; [3]
  Ulcer index: 10.6 ± 0.9 mm
[1]; [4]
  inhibition in vivo at 10 mg/kg: 59.4%
[2]; [5]
  Ulcer index: 4.1 ± 0.8 mm
[2]; [6]
  inhibition in vivo at 10 mg/kg: 96.3%
In vivo; intravenous, n=3/group, 7 days
  LD50 at 168 h: 100 to 200 mg/kg

## CCCn1c(=O)c2c(ncn2CCCCCC(O)CO)n(CC)c1=O (stereo not shown) [Compound 13]
[1]; [3]
  Ulcer index: 8.9 ± 2.1 mm
[1]; [4]
  inhibition in vivo at 10 mg/kg: 66%
[2]; [5]
  Ulcer index: 5.0 ± 2.2 mm
[2]; [6]
  inhibition in vivo at 10 mg/kg: 95.5%
In vivo; intravenous, n=3/group, 7 days
  LD50 at 168 h: 200 to 400 mg/kg

## CC(=O)CCCCn1cnc2c1c(=O)n(CC(C)=O)c(=O)n2C [Compound 24, 3-Methyl-7-(5-oxohexyl)-1-(2-oxopropyl)-xanthine]
[1]; [7]
  Ulcer index: 10.3 ± 3.5 mm
[1]; [8]
  inhibition in vivo at 10 mg/kg: 47.7%
In vivo; intravenous, n=3/group, 7 days
  LD50 at 168 h: > 200 mg/kg

## CCn1c(=O)n(CC(C)O)c(=O)c2c1ncn2CCCCC(O)CO (stereo not shown) [Compound 8, 3-Ethyl-7-(5,6-dihydroxyhexyl)-1-(2-hydroxypropyl)-xanthine]
[1]; [3]
  Ulcer index: 20.7 ± 4.6 mm
[1]; [4]
  inhibition in vivo at 10 mg/kg: 21%
In vivo; intravenous, n=3/group, 7 days
  LD50 at 168 h: > 200 mg/kg

## C=CCn1c(=O)c2c(ncn2CCCCC(C)O)n(C)c1=O (stereo not shown) [Compound 18, 1-Allyl-7-(5-hydroxyhexyl)-3-methylxanthine]
[1]; [7]
  Ulcer index: 15.3 ± 2.1 mm
[1]; [8]
  inhibition in vivo at 10 mg/kg: 22.3%
In vivo; [10]
  LD50 at 168 h: 250 to 500 mg/kg

## CCCn1c(=O)c2c(ncn2CCCCC(O)CO)n(CC)c1=O (stereo not shown) [Compound 1]
[1]; [7]
  Ulcer index: 2.7 ± 0.9 mm
[1]; [8]
  inhibition in vivo at 10 mg/kg: 86.3%
[2]; [11]
  Ulcer index: 6.7 ± 2.1 mm
[2]; [12]
  inhibition in vivo at 10 mg/kg: 95.8%
mice
  toxicity (in words): low toxicity

## CC(=O)Cn1c(=O)c2c(ncn2CCCCC(C)O)n(C)c1=O (stereo not shown) [Compound 19, 7-(5-Hydroxyhexyl)-3-methyl-1-(2-oxopropyl)-xanthine]
[1]; [3]
  Ulcer index: 15.0 ± 2.4 mm
[1]; [4]
  inhibition in vivo at 10 mg/kg: 42.8%
In vivo; intravenous, n=3/group, 7 days
  LD50 at 168 h: > 200 mg/kg

## CCn1c(=O)c2c(ncn2CCCCC(C)=O)n(C)c1=O [Compound 22]
[1]; [7]
  Ulcer index: 8.0 ± 4.2 mm
[1]; [8]
  inhibition in vivo at 10 mg/kg: 59%
In vivo; [10]
  LD50 at 168 h: 200 to 400 mg/kg

## CC(=O)CCCCn1c(=O)c2c(ncn2CCCCC(O)CO)n(C)c1=O (stereo not shown) [Compound 11, 7-(5,6-dihydroxyhexyl)-3-methyl-1-(5-oxohexyl)-xanthine]
[1]; [3]
  Ulcer index: 13.8 ± 1.7 mm
[1]; [4]
  inhibition in vivo at 10 mg/kg: 47.4%
In vivo; intravenous, n=3/group, 7 days
  LD50 at 168 h: > 200 mg/kg

## CC(=O)Cn1cnc2c1c(=O)n(CCCCC(C)O)c(=O)n2C (stereo not shown) [Compound 23, 1-(5-Hydroxyhexyl)-3-methyl-7-(2-oxopropyl)-xanthine]
[1]; [7]
  Ulcer index: 15.8 ± 4.6 mm
[1]; [8]
  inhibition in vivo at 10 mg/kg: 19.8%
In vivo; intravenous, n=3/group, 7 days
  LD50 at 168 h: > 200 mg/kg

## CCCCCn1c(=O)c2c(ncn2CCCCC(O)CO)n(CC)c1=O (stereo not shown) [Compound 4]
[1]; [3]
  Ulcer index: 9.2 ± 1.9 mm
[1]; [4]
  inhibition in vivo at 10 mg/kg: 64.7%
[2]; [5]
  Ulcer index: 15.6 ± 5.8 mm
[2]; [6]
  inhibition in vivo at 10 mg/kg: 86%
In vivo; intravenous, n=3/group, 7 days
  LD50 at 168 h: > 200 mg/kg

## CC(=O)CCCCn1c(=O)c2c(ncn2C)n(C)c1=O [Compound 25, 1,2,3,6-tetrahydro-3,7-dimethyl-1-(5-oxohexyl)-purine-2,6-dione, reference compound]
[1]; [8]
  inhibition in vivo at 10 mg/kg: 12.7%
[2]; [12]
  inhibition in vivo at 10 mg/kg: 78.8%
Peptic ulcer disease
  antiulcer effects (in words): antiulcer effects

## CCCn1cnc2c1c(=O)n(CCCCC(O)CO)c(=O)n2CC (stereo not shown) [Compound 14]
[1]; [3]
  Ulcer index: 10.4 ± 1.9 mm
[1]; [4]
  inhibition in vivo at 10 mg/kg: 60.2%
In vivo; [10]
  LD50 at 168 h: 300 to 600 mg/kg

## CCCCn1c(=O)c2c(ncn2CCCCC(O)CO)n(CC)c1=O (stereo not shown) [Compound 3]
[1]; [7]
  Ulcer index: 6.0 ± 1.9 mm
[1]; [8]
  inhibition in vivo at 10 mg/kg: 69.6%
[2]; [11]
  Ulcer index: 5.3 ± 3.3 mm
[2]; [12]
  inhibition in vivo at 10 mg/kg: 96.8%

## CCn1c(=O)n(CC(C)C)c(=O)c2c1ncn2CCCCC(O)CO (stereo not shown) [Compound 5]
[1]; [3]
  Ulcer index: 7.1 ± 1.8 mm
[1]; [4]
  inhibition in vivo at 10 mg/kg: 72.9%
In vivo; intravenous, n=3/group, 7 days
  LD50 at 168 h: > 200 mg/kg

## CCCn1c(=O)c2c(ncn2CCCC(O)C(C)O)n(CC)c1=O (stereo not shown) [Compound 12]
[1]; [3]
  Ulcer index: 4.3 ± 0.8 mm
[1]; [4]
  inhibition in vivo at 10 mg/kg: 83.5%
In vivo; intravenous, n=3/group, 7 days
  LD50 at 168 h: > 200 mg/kg

## CCn1c(=O)n(C(C)C)c(=O)c2c1ncn2CCCCC(O)CO (stereo not shown) [Compound 2]
[1]; [3]
  Ulcer index: 11.5 ± 2.1 mm
[1]; [4]
  inhibition in vivo at 10 mg/kg: 56%
[2]; [5]
  Ulcer index: 6.7 ± 2.8 mm
[2]; [6]
  inhibition in vivo at 10 mg/kg: 94%

## CCCCn1c(=O)c2c(ncn2CCCCC(O)CO)n(C)c1=O (stereo not shown) [Compound 10]
[1]; [3]
  Ulcer index: 4.5 ± 1.4 mm
[1]; [4]
  inhibition in vivo at 10 mg/kg: 82.8%
[2]; [5]
  Ulcer index: 1.1 ± 0.5 mm
[2]; [6]
  inhibition in vivo at 10 mg/kg: 99%
